Measurements published in US7972611B2, “Fungus-induced inflammation and eosinophil degranulation” (Mayo Foundation for Medical Education and Research, priority 2005, dated 2011).
Where two headings read alike, the source gives them in different places. Starred links: 1 amine or outer side, 2 acyl side, 3 side chain; linkers in the order of their positions; H or OH if unused. Residues, ends and D or L forms follow the SMILES beside them. CO = O=C([*:1])[*:2]

Assays:
[1] = test system: eosinophils; assay type: cell-based, human
Experimental: FIG. 9. […] Alternaria extract, trypsin, or PMA was pretreated with pepstatin A agarose, control agarose, or APMSF, and added to the PAR-2 peptide substrate (Panel A) or eosinophils (Panel B).
(§1) To monitor eosinophil function in response to extracts from Alternaria, degranulation of human eosinophils was measured by quantitating released eosinophil-derived neurotoxin (EDN) and/or MBP. In brief, freshly isolated eosinophils were suspended in HBSS with 25 mM HEPES and 0.01% gelatin at 5×10^5 cells/mL. Eosinophils and stimuli were incubated in 96-well tissue culture plates for 3 hours at 37° C. and 5% CO^2. Cell-free supernatants were stored at −20° C. A specific RIA quantitated eosinophil degranulation by measuring the concentration of EDN in the supernatants.

[2] = test system: human eosinophils; assay: Eosinophil degranulation (EDN release) and activation by fungal extracts and proteins; assay type: cell-based; conditions: for activation of human eosinophils by proteases: through PAR-2
Experimental: FIG. 5. Effects of fungi on eosinophil degranulation. Eosinophils were incubated with culture extracts of various fungi for 3 hours.
FIG. 21. Effects of Trichoderma xylanase on eosinophil degranulation (Panel A). Effects of Trichoderma xylanase on IL-5 production in mouse airways (Panel B). Panel A: Eosinophils were incubated with various concentrations of Trichoderma xylanase for 3 hours. EDN concentrations in the supernatants were measured by RIA as an indicator of degranulation. Panel B: Naive BALB/c mice were exposed intranasally to various doses of Trichoderma xylanase. After 12 hours, BAL fluids were collected and the concentrations of IL-5 were measured by ELISA. Mean±range, n=2.
FIG. 25. Partial characterization of Alternaria extract. A, Before incubation with eosinophils, aliquots of 100 μg/mL Alternaria and 10 ng/mL IL-5 were heated at 37, 56, or 100° C. for 30 min or were treated at 4° C. for 30 min. Eosinophils were incubated in duplicate with these treated stimuli for 3 hours at 37° C. […] The molecular weight calibration of the column is shown above the elution profile.
The following was performed to determine whether human eosinophils have an innate capacity to respond to environmental fungal organisms. Human eosinophils were incubated with extracts from common environmental airborne fungi.
as §1

## CC(C)[C@H](NC(=O)[C@H](CCCNC(=N)N)NC(=O)N[C@@H](Cc1ccccc1)C(=O)O)C(=O)N[C@H](C=O)CCCNC(=N)N [Antipain] ({Phe-CO}-Arg-Val-Arg-aldehyde)
[1]; 3 hours at 37° C.
  eosinophil degranulation (EDN release) induced by Alternaria extract: did not inhibit

## CC(C)C[C@H](NP(=O)(O)O[C@@H]1O[C@@H](C)[C@H](O)[C@@H](O)[C@H]1O)C(=O)N[C@@H](Cc1c[nH]c2ccccc12)C(=O)O [Phosphoramidon]
[1]; 3 hours at 37° C.
  eosinophil degranulation (EDN release) induced by Alternaria extract: did not inhibit

## C[S+]([O-])c1ccc(-c2nc(-c3ccncc3)c(-c3ccc(F)cc3)[nH]2)cc1 (stereo not shown) [SB203580]
[1]; 3 hours at 37° C.
  eosinophil degranulation (EDN release) induced by Alternaria extract: did not inhibit

## heparin
[1]; 3 hours at 37° C.
  eosinophil degranulation (EDN release) induced by Alternaria extract: inhibited

## IL-5: cytokine
[2]; treatment at 56° C. or lower temperatures
  loss of activity to induce EDN release after treatment: not
[2]; treatment at 100° C.
  activity to induce EDN release after heat treatment: abolished

## CC(=O)c1c(O)c(C)c(O)c(Cc2c(O)c3c(c(C(=O)/C=C/c4ccccc4)c2O)OC(C)(C)C=C3)c1O [Rottelrin]
[1]; 3 hours at 37° C.
  eosinophil degranulation (EDN release) induced by Alternaria extract: did not inhibit

## COc1cc2c(c(OC)c1OC)-c1ccc(OC)c(=O)cc1[C@@H](NC(C)=O)CC2 [Colchitin]
[1]; 3 hours at 37° C.
  eosinophil degranulation (EDN release) induced by Alternaria extract: did not inhibit

## CC(C)C[C@H](NC(=O)[C@@H](O)[C@H](N)Cc1ccccc1)C(=O)O [Bestatin]
[1]; 3 hours at 37° C.
  eosinophil degranulation (EDN release) induced by Alternaria extract: did not inhibit

## [La] [Lanthunum]
[1]; 3 hours at 37° C.
  eosinophil degranulation (EDN release) induced by Alternaria extract: inhibited

## O=C(O)CN(CCOCCOCCN(CC(=O)O)CC(=O)O)CC(=O)O [EGTA]
[1]; 3 hours at 37° C.
  eosinophil degranulation (EDN release) induced by Alternaria extract: inhibited

## CC(C)C[C@H](NC(=O)[C@@H](NC(=O)N[C@@H](Cc1ccccc1)C(=O)O)[C@@H]1CCN=C(N)N1)C(=O)N[C@H](C=O)Cc1ccccc1 [Chymostatin]
[1]; 3 hours at 37° C.
  eosinophil degranulation (EDN release) induced by Alternaria extract: did not inhibit

## NCCCCCCNS(=O)(=O)c1cccc2c(Cl)cccc12 [W-7]
[1]; 3 hours at 37° C.
  eosinophil degranulation (EDN release) induced by Alternaria extract: did not inhibit

## Cl.NCCc1ccc(S(=O)(=O)F)cc1 [Pefabloc SC]
[1]; 3 hours at 37° C.
  eosinophil degranulation (EDN release) induced by Alternaria extract: did not inhibit

## CC(C)C[C@H](NC(=O)[C@H]1O[C@@H]1C(=O)O)C(=O)NCCCCN=C(N)N [E64]
[1]; 3 hours at 37° C.
  eosinophil degranulation (EDN release) induced by Alternaria extract: did not inhibit

## O=c1c(-c2ccc(O)cc2)coc2cc(O)cc(O)c12 [Genistein]
[1]; 3 hours at 37° C.
  eosinophil degranulation (EDN release) induced by Alternaria extract: did not inhibit

## Cn1cc(C2=C(c3cn(CCCSC(=N)N)c4ccccc34)C(=O)NC2=O)c2ccccc21 [Ro-31-8220]
[1]; 3 hours at 37° C.
  eosinophil degranulation (EDN release) induced by Alternaria extract: did not inhibit

## COC[C@H]1OC(=O)c2coc3c2[C@@]1(C)C1=C(C3=O)[C@@H]2CCC(=O)[C@@]2(C)C[C@H]1OC(C)=O [Wortmannin]
[1]; 3 hours at 37° C.
  eosinophil degranulation (EDN release) induced by Alternaria extract: did not inhibit

## Cc1ccc(S(=O)(=O)N[C@@H](CCCCN)C(=O)CCl)cc1 [TLCK]
[1]; 3 hours at 37° C.
  eosinophil degranulation (EDN release) induced by Alternaria extract: did not inhibit

## COc1cccc(-c2cc(=O)c3ccccc3o2)c1N [PD98059]
[1]; 3 hours at 37° C.
  eosinophil degranulation (EDN release) induced by Alternaria extract: did not inhibit

## O=C(O)CN(CCN(CC(=O)O)CC(=O)O)CC(=O)O [EDTA]
[1]
  eosinophil degranulation (EDN release) induced by Alternaria extract: inhibited

## pertussis toxin
[1]
  Alternaria-induced eosinophil [Ca2+]i response and degranulation, sensitivity to pertussis toxin: sensitive

## Jasplakinlide
[1]; 3 hours at 37° C.
  eosinophil degranulation (EDN release) induced by Alternaria extract: inhibited

## Aprotinin
[1]; 3 hours at 37° C.
  eosinophil degranulation (EDN release) induced by Alternaria extract: did not inhibit

## CCCCCCCCCCCCCCCCCCNC(=O)OCC(COC(=O)N(Cc1cccc[n+]1CC)C(C)=O)OC (stereo not shown) [CV6209]
[1]; 3 hours at 37° C.
  eosinophil degranulation (EDN release) induced by Alternaria extract: inhibited

## CCN(CC)CCCC(C)Nc1ccnc2cc(Cl)ccc12 (stereo not shown) [Chloroquine]
[1]; 3 hours at 37° C.
  eosinophil degranulation (EDN release) induced by Alternaria extract: did not inhibit

## CN(C)CCCn1cc(C2=C(c3c[nH]c4ccccc34)C(=O)NC2=O)c2ccccc21 [GF109203X]
[1]; 3 hours at 37° C.
  eosinophil degranulation (EDN release) induced by Alternaria extract: did not inhibit

## C=CC[C@@H]1/C=C(\C)C[C@H](C)C[C@H](OC)[C@H]2O[C@@](O)(C(=O)C(=O)N3CCCC[C@H]3C(=O)O[C@H](/C(C)=C/[C@@H]3CC[C@@H](O)[C@H](OC)C3)[C@H](C)[C@@H](O)CC1=O)[C@H](C)C[C@@H]2OC [FK 506]
[1]; 3 hours at 37° C.
  eosinophil degranulation (EDN release) induced by Alternaria extract: did not inhibit

## CC(=O)N[C@@H](CC(C)C)C(=O)N[C@@H](CC(C)C)C(=O)N[C@H](C=O)CCCNC(=N)N [Leupeptin]
[1]; 3 hours at 37° C.
  eosinophil degranulation (EDN release) induced by Alternaria extract: did not inhibit

## C=C1[C@@H](C)[C@H]2[C@H](Cc3ccccc3)NC(=O)[C@]23OC(=O)/C=C/[C@H](O)CCC[C@@H](C)C/C=C/[C@H]3[C@@H]1O [Cytochalasin B]
[1]; 3 hours at 37° C.
  eosinophil degranulation (EDN release) induced by Alternaria extract: did not inhibit

B1: SEQ ID NO:2: polypeptide of SEQ ID NO:2, Alternaria alternata endoxylanase, recombinantly produced in E. coli (protein, listed as Alternaria brassicicola)
chain: MHFRGSSIYFGIVALSSTSAVLGAVAPYGQCGGNGFQGETECAQGWSCVKSNDWYSQCINGGGNAPAPPAATGVAPAPVIPSAAPVPSMNASEPVAAPVAVAQPAATGGANGSAPDVAGTGANGAKCSLDAAFKSHGKKYIGVATDQGALSKGKNKEIIVANFGQVTPENSMKWDATEGTEGKFTLDGANALVSFATENKKLVRGHTTVWHSQLPTWVSSITDKTKLEEVMVAHIKKLMSTYAGKVYAWDVVNEIFNEDGSFRSSVFYNVLGENFVATAFATAKAADPEAKLYINDYNLDSPSYAKTKAMASNVKKWVAAGVPIDGIGSQSHLSGSWPISDYPAALKLLCESASECAMTELDIKGGAAADYKTAVTACLDVENCVGVTVWGVSDTDSWIGAAATPLLFDGSFQAKESYNGLCSALA
[2]; eosinophils incubated with stimulus
  eosinophil degranulation (EDN release): stimulated eosinophil degranulation

B2: Der f1: natural mite allergen protease (protein, UniProt P16311 99-321, looked up)
Peptidase 1: TSACRINSVNVPSELDLRSLRTVTPIRMQGGCGSCWAFSGVAATESAYLAYRNTSLDLSEQELVDCASQHGCHGDTIPRGIEYIQQNGVVEERSYPYVAREQRCRRPNSQHYGISNYCQIYPPDVKQIREALTQTHTAIAVIIGIKDLRAFQHYDGRTIIQHDNGYQPNYHAVNIVGYGSTQGDDYWIVRNSWDTTWGDSGYGYFQAGNNLMMIEQYPYVVIM
[2]
  activation of human eosinophils by proteases: activated

B3: Calpastatin (protein, UniProt P20810 1-708, looked up)
Calpastatin: MNPTETKAIPVSQQMEGPHLPNKKKHKKQAVKTEPEKKSQSTKLSVVHEKKSQEGKPKEHTEPKSLPKQASDTGSNDAHNKKAVSRSAEQQPSEKSTEPKTKPQDMISAGGESVAGITAISGKPGDKKKEKKSLTPAVPVESKPDKPSGKSGMDAALDDLIDTLGGPEETEEENTTYTGPEVSDPMSSTYIEELGKREVTIPPKYRELLAKKEGITGPPADSSKPIGPDDAIDALSSDFTCGSPTAAGKKTEKEESTEVLKAQSAGTVRSAAPPQEKKRKVEKDTMSDQALEALSASLGTRQAEPELDLRSIKEVDEAKAKEEKLEKCGEDDETIPSEYRLKPATDKDGKPLLPEPEEKPKPRSESELIDELSEDFDRSECKEKPSKPTEKTEESKAAAPAPVSEAVCRTSMCSIQSAPPEPATLKGTVPDDAVEALADSLGKKEADPEDGKPVMDKVKEKAKEEDREKLGEKEETIPPDYRLEEVKDKDGKPLLPKESKEQLPPMSEDFLLDALSEDFSGPQNASSLKFEDAKLAAAISEVVSQTPASTTQAGAPPRDTSQSDKDLDDALDKLSDSLGQRQPDPDENKPMEDKVKEKAKAEHRDKLGERDDTIPPEYRHLLDDNGQDKPVKPPTKKSEDSKKPADDQDPIDALSGDLDSCPSTTETSQNTAKDKCKKAASSSKAPKNGGKAKDSAKTTEETSKPKDD
[1]; 3 hours at 37° C.
  eosinophil degranulation (EDN release) induced by Alternaria extract: did not inhibit

B4: papain: cysteine protease (protein, UniProt P00784 134-345, looked up)
Papain: IPEYVDWRQKGAVTPVKNQGSCGSCWAFSAVVTIEGIIKIRTGNLNEYSEQELLDCDRRSYGCNGGYPWSALQLVAQYGIHYRNTYPYEGVQRYCRSREKGPYAAKTDGVRQVQPYNEGALLYSIANQPVSVVLEAAGKDFQLYRGGIFVGPCGNKVDHAVAAVGYGPNYILIKNSWGTGWGENGYIRIKRGTGNSYGVCGLYTSSFYPVKN
[2]
  activation of human eosinophils by proteases: activated
